Patent publication US4522815A, “Anthracycline glycosides” (priority 1982, dated 1985)
Values after ≈ are worked out from the molar mass of the structure shown.

Assays:
HeLa cells = assay: Colony inhibition test against HeLa cells in vitro (cloning efficiency), treatment for 24 hrs; format: cell-based
ascitic P388 leukemia = assay: Antitumor activity against ascitic P388 leukemia in CDF-1 mice, treatment i.p. on day 1; format: in vivo; settings: for LTS, long term survivors (≥ 60 days) / T/C, median survival time; % over untreated controls / Toxic deaths (autoptic findings on dead mice): Table 2
Protocol: The primary screening […] was carried out in CDF-1 mice bearing ascitic P388 leukemia (10^6 cells/mouse). Both IIa and IIc were suspended in 10%. Tween 80 and injected intraperitoneally.
Results of the primary screening "in vivo" carried out in CDF-1 mice bearing P388 ascitic leukemia and treated i.p. the day after tumor transplantation, are reported in Table 5.
Antitumor activity against ascitic P388 leukekemia.
(§1) Treatment i.p. on day 1.
^a median survival time; % over untreated controls
^b long term survivors (≥ 60 days)
^c evaluated on the basis of autoptic findings on dead mice
^d data of two experiments (range)
^e date of three experiments (range)
Antitumor activity of Ib and Id against ascitic P388
as §1

[1] = 30 mg/kg i.p. day 1, two experiments

COc1cccc2c1C(=O)c1c(O)c3c(c(O)c1C2=O)C[C@@](O)(C(=O)CO)C[C@@H]3O[C@H]1C=C[C@@H](O)[C@H](C)O1 [Compound IIc, 7-0-(2,3,6-trideoxy-α-L-erythro-hex-2-enopyranosyl)-adriamycinone]
times less cytotoxic than DX (HeLa cells; HeLa cells cloning efficiency, vs DX): about 5 times | activity at 0.0015 µg/mL (HeLa cells; Homo sapiens, HeLa, Table 1, 1.5 ng/ml, 24 hrs, read-out: No of colonies, % of untreated controls): 86% | activity at 0.0062 µg/mL (HeLa cells; Homo sapiens, HeLa, Table 1, 6.2 ng/ml, 24 hrs, read-out: No of colonies, % of untreated controls): 68% | activity at 0.025 µg/mL (HeLa cells; Homo sapiens, HeLa, Table 1, 25 ng/ml, 24 hrs, read-out: No of colonies, % of untreated controls): 65% | activity at 0.1 µg/mL (HeLa cells; Homo sapiens, HeLa, Table 1, 100 ng/ml, 24 hrs, read-out: No of colonies, % of untreated controls): 33% | activity at 0.4 µg/mL (HeLa cells; Homo sapiens, HeLa, Table 1, 400 ng/ml, 24 hrs, read-out: No of colonies, % of untreated controls): 4% | IC50 (HeLa cells; Homo sapiens, Table 1, HeLa colony inhibition, 24 hrs, read-out: ID50 (the source's name)): ~0.05 µg/mL (≈ 0.095 µM) | LTS, long term survivors (≥ 60 days) (ascitic P388 leukemia; 17.6 mg/kg i.p. day 1): 0/8 | T/C, median survival time; % over untreated controls (ascitic P388 leukemia; 17.6 mg/kg i.p. day 1): 118% | Toxic deaths (autoptic findings on dead mice) (ascitic P388 leukemia; 17.6 mg/kg i.p. day 1): 0/8 | LTS, long term survivors (≥ 60 days) (ascitic P388 leukemia; 23 mg/kg i.p. day 1): 0/7 | T/C, median survival time; % over untreated controls (ascitic P388 leukemia; 23 mg/kg i.p. day 1): 127% | Toxic deaths (autoptic findings on dead mice) (ascitic P388 leukemia; 23 mg/kg i.p. day 1): 0/7 | LTS, long term survivors (≥ 60 days) (ascitic P388 leukemia; [1]): 0/17 | Toxic deaths (autoptic findings on dead mice) (ascitic P388 leukemia; [1]): 0/17 | T/C, median survival time; % over untreated controls (ascitic P388 leukemia; 30 mg/kg i.p. day 1, two experiments (range)): 125-136% | LTS, long term survivors (≥ 60 days) (ascitic P388 leukemia; 45 mg/kg i.p. day 1): 0/10 | T/C, median survival time; % over untreated controls (ascitic P388 leukemia; 45 mg/kg i.p. day 1): 130% | Toxic deaths (autoptic findings on dead mice) (ascitic P388 leukemia; 45 mg/kg i.p. day 1): 0/10 | LTS, long term survivors (≥ 60 days) (ascitic P388 leukemia; 67.5 mg/kg i.p. day 1): 0/10 | T/C, median survival time; % over untreated controls (ascitic P388 leukemia; 67.5 mg/kg i.p. day 1): 140% | Toxic deaths (autoptic findings on dead mice) (ascitic P388 leukemia; 67.5 mg/kg i.p. day 1): 0/10 | LTS, long term survivors (≥ 60 days) (ascitic P388 leukemia; 100 mg/kg i.p. day 1): 0/7 | T/C, median survival time; % over untreated controls (ascitic P388 leukemia; 100 mg/kg i.p. day 1): 150% | Toxic deaths (autoptic findings on dead mice) (ascitic P388 leukemia; 100 mg/kg i.p. day 1): 0/7 | toxicity and potency vs parent drugs DNR and DX (ascitic P388 leukemia; ascitic P388, i.p.): less toxic and potent than the parent drugs DNR and DX | antitumor activity on P388 ascitic leukemia (ascitic P388 leukemia; i.p. day 1, IIa: two doses tested incl. Mx TD): a certain antitumor activity, which is lower than that of DX
